Results from PMC7318308, “A Novel Synthetic Dual Agonistic Liposomal TLR4/7 Adjuvant Promotes Broad Immune Responses in an Influenza Vaccine With Minimal Reactogenicity” (Frontiers in Immunology, 2020).

Key:
human TLR4 = target: T1, human TLR4 (Homo sapiens, UniProt O00206+Q9Y6Y9); test: TLR4/NF-κB reporter cell assay (SEAP), HEK-Blue hTLR4; assay type: cell-based; conditions: for human TLR4 agonistic activity (in words): AUC normalized to 2B110 as 100%, Figure 1C
T1 construct: host or cells: HEK-Blue hTLR4 (HEK293-derived NF-κB/SEAP reporter cells)
Protocol: (§1) Figure 1 Structure-activity relationship studies in TLR4 agonistic pyrimidoindoles. (A) Syntheses of C8-alkynyl and C8-alkyl analogs. (B) Syntheses of C8-aryl analogs. (C) Scatter plot of hTLR4 and mTLR4 agonistic activity in TLR4-NF-κB HEK reporter cells (HEK-Blue™ hTLR4 and HEK-Blue™ mTLR4, respectively). NF-κB inducible NF-κB SEAP levels in culture supernatants were measured according to manufacturer's protocol. The TLR4 agonistic potency was evaluated as area under the curve (AUC) calculated for dose response curve using 2-fold serial dilutions from 10 μM, and normalized to the AUC for 2B110 as 100% on both axes. […] The color of each point is based on cell viability in TLR4-NF-κB reporter cells for compounds evaluated at 5 μM concentration. Viability data was normalized to vehicle control (Vehicle OD570−650 = 0.58 ± 0.01). (D) Structures of the lead compounds with differences at C8 substitution highlighted in blue.
(§2) Titration curves of 1Z105 and derivatives were used to assess their potency in stimulating human and mouse TLR4 response using HEK NF-κB reporter cells (HEK-Blue™ hTLR4 and mTLR4, respectively). The areas under the curve for dose response curves relative to vehicle (0.5% DMSO) were normalized to the greatest activity as 100% of 2B110 for both assays (Figure 1C). The compounds were also tested for in vitro toxicity by MTT assay (Figure 1C, Supplementary Figure 1).
(§3) TLR4/NF-κB activation was assessed using HEK-Blue™ hTLR4 and HEK-Blue™ mTLR4 (InvivoGen). The cells were treated with 1Z105 and 2B182C (2-fold serial dilutions starting from 10 μM) for 20 h. NF-κB inducible secreted embryonic alkaline phosphatase (SEAP) protein in the culture supernatant was measured according to manufacturer's protocol. To evaluate cell viability, 0.5 mg/mL 3-[4,5-dimethylthiazol-2-yl]-2,5-dipheyl tetrazolium bromide (MTT, Thermo Fisher Scientific) solution was added to each well and incubated at 37°C. Six hours later, formazan crystals were lysed with lysis buffer (15% SDS and 0.12% 12 N HCl) and the absorbance was measured at 570 nm using 650 nm as a reference with a plate reader (Tecan, Switzerland).

[1] = tested on: TLR4-NF-κB reporter cells; test: MTT cell viability in TLR4-NF-κB reporter cells; assay type: cell-based; conditions: for toxicity in cell-based MTT assay (in words): viability at 5 μM in Figure 1C, normalized to vehicle
Protocol: as §1, §3

TLR4 = TLR4 activity in HEK NF-κB reporter cells, species not told apart in the text; assay type: cell-based, human and mouse; conditions: HEK-Blue hTLR4 and mTLR4, Figure 1C
Protocol: as §1, §2, §3

mouse TLR4 = target: T2, mouse TLR4 (Mus musculus, UniProt Q9JHF9+Q9QUK6); test: TLR4/NF-κB reporter cell assay (SEAP), HEK-Blue mTLR4; assay type: cell-based; conditions: for murine TLR4 agonistic activity (in words): AUC normalized to 2B110 as 100%, Figure 1C
T2 construct: host or cells: HEK-Blue mTLR4 (HEK293-derived NF-κB/SEAP reporter cells)
T2 sequence (Q9QUK6 26-835): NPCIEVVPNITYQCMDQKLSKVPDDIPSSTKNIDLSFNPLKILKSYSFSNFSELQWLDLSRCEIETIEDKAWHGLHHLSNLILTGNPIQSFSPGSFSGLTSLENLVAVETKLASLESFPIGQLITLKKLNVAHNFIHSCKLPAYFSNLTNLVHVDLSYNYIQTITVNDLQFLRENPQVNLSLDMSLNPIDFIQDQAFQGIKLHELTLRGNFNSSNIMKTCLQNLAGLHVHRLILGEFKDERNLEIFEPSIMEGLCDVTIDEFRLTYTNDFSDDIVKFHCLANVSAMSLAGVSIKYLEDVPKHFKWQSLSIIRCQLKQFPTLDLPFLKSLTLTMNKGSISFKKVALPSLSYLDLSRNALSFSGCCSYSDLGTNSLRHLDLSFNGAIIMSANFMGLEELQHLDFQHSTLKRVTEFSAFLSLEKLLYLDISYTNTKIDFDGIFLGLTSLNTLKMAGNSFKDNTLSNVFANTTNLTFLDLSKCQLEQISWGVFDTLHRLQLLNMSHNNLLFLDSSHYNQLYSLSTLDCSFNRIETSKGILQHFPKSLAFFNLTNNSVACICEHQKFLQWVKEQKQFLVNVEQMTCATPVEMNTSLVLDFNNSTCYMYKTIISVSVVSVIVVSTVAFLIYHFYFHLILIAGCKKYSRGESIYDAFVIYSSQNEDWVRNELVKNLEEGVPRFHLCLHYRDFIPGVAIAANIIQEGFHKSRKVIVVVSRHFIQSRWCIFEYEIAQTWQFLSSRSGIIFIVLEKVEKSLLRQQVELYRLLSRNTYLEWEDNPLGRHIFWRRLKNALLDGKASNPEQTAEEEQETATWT
T2 sequence (Q9JHF9 19-160): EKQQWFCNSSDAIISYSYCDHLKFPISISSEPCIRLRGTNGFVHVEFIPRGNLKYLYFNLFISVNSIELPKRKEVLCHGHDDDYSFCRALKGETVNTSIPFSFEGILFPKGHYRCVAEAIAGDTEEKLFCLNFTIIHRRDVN
Protocol: as §1, §2, §3

[2] = tested on: HEK-Blue mTLR4 reporter cells; test: MTT cell viability, murine TLR4 reporter cells; assay type: cell-based; conditions: concentrations below 10 µM, MTT
Protocol: as §3
Human TLR4 reporter cells Murine TLR4 reporter cells
[Compound] 1 μM 10 [Compound] 1 μM 10
Supplementary Figure 1. Dose response curves for cell viability (toxicity) of lead compounds in human and murine TLR4-NF-κB reporter cells. Cellular toxicity evaluated by MTT assay is presented as % viability normalized to vehicle (0.5% DMSO) as 100%. While 1Z105 had minimal toxicity in both hTLR4 and mTLR4 reporter cells (HEK-BlueTM hTLR4 and HEK-BlueTM mTLR4, […]
(also on this page, place not known: %Relative (Normalized 100%) 101101 viability vehicle as to)

[3] = 2-fold serial dilutions from 10 μM, the value taken as 100% for normalisation

T1 sequence (O00206 24-839): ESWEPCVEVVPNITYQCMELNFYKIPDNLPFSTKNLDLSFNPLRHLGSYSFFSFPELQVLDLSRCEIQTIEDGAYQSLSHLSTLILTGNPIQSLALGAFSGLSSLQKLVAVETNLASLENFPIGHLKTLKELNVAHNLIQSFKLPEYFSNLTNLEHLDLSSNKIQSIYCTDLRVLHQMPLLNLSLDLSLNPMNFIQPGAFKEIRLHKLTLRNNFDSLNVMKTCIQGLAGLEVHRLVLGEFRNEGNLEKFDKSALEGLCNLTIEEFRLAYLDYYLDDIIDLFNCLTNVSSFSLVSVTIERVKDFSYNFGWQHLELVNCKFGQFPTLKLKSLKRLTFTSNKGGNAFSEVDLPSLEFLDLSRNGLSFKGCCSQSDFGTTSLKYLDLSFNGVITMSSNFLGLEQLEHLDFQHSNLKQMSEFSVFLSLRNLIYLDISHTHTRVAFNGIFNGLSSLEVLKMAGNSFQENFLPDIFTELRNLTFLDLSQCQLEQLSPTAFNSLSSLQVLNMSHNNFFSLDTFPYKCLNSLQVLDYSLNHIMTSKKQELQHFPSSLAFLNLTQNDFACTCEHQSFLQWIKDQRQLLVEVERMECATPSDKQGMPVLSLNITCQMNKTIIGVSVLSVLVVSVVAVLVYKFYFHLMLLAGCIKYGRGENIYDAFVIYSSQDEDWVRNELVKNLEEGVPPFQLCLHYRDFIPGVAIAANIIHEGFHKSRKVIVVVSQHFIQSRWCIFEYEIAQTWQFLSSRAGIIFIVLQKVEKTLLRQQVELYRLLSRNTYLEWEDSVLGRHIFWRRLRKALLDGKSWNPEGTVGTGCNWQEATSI
T1 sequence (Q9Y6Y9 17-160 limits assumed): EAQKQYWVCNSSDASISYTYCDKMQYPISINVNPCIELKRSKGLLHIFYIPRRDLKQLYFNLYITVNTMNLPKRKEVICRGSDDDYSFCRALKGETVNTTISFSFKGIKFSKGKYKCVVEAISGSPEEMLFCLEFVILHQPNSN

SMILES	human TLR4 agonistic activity (in words) (human TLR4)	TLR4 activity (species not told apart) (TLR4)	murine TLR4 agonistic activity (in words) (mouse TLR4)	other results
COc1cccc(-c2ccc3c(c2)c2nc(SCC(=O)NC4CCCCC4)n(-c4ccccc4)c(=O)c2n3C)c1 [8h]	dramatic loss of human TLR4 activity	–	–	–
CCCCc1ccc(-c2ccc3c(c2)c2nc(SCC(=O)NC4CCCCC4)n(-c4ccccc4)c(=O)c2n3C)cc1 [8e]	–	maintaining TLR4 activity	–	toxicity in cell-based MTT assay (in words) [1]: relatively high toxicity
Cn1c2ccc(-c3cccc([N+](=O)[O-])c3)cc2c2nc(SCC(=O)NC3CCCCC3)n(-c3ccccc3)c(=O)c21 [8o]	less potent than 2B110	–	retained murine TLR4 activity	–
Cn1c2ccc(-c3cccc(-c4ccccc4)c3)cc2c2nc(SCC(=O)NC3CCCCC3)n(-c3ccccc3)c(=O)c21 [8f]	dramatic loss of human TLR4 activity	–	–	–
CCCC#Cc1ccc2c(c1)c1nc(SCC(=O)NC3CCCCC3)n(-c3ccccc3)c(=O)c1n2C [6b]	–	highest level of TLR4 activation	–	–
CCCCCC#Cc1ccc2c(c1)c1nc(SCC(=O)NC3CCCCC3)n(-c3ccccc3)c(=O)c1n2C [6c]	–	reduction in TLR4 activity	–	–
Cn1c2ccc(-c3cccc(C#N)c3)cc2c2nc(SCC(=O)NC3CCCCC3)n(-c3ccccc3)c(=O)c21 [8n]	less potent than 2B110	–	retained murine TLR4 activity	–
Cn1c2ccc(-c3cccc(N)c3)cc2c2nc(SCC(=O)NC3CCCCC3)n(-c3ccccc3)c(=O)c21 [8k]	significant loss	–	significant loss	–
Cn1c2ccc(-c3cccc(O)c3)cc2c2nc(SCC(=O)NC3CCCCC3)n(-c3ccccc3)c(=O)c21 [8m]	significant loss	–	significant loss	–
Cn1c2ccc(-c3ccccc3)cc2c2nc(SCC(=O)NC3CCCCC3)n(-c3ccccc3)c(=O)c21 [2B110]	high TLR4 stimulatory potency	–	high TLR4 stimulatory potency	toxicity at lower concentrations, mTLR4 reporter cells (in words) [2]: more toxic compared to 8s; toxicity at 10 µM (in words) ([1]; 10 µM, MTT, Supplementary Figure 1): exhibited toxicity; toxicity in cell-based MTT assay (in words) [1]: slightly higher toxicity in MTT assays than did 2B182C; AUC of dose response curve, hTLR4 reporter cells (human TLR4; [3]): 14.95 ± 1.95; AUC of dose response curve, mTLR4 reporter cells (mouse TLR4; [3]): 28.43 ± 5.49 units
CCCCCCCCCCC#Cc1ccc2c(c1)c1nc(SCC(=O)NC3CCCCC3)n(-c3ccccc3)c(=O)c1n2C [6d]	–	completely inactive	–	–
C#Cc1ccc2c(c1)c1nc(SCC(=O)NC3CCCCC3)n(-c3ccccc3)c(=O)c1n2C [6a]	–	reduction in TLR4 activity	–	–
Cn1c2ccc(-c3cccc(C(=O)O)c3)cc2c2nc(SCC(=O)NC3CCCCC3)n(-c3ccccc3)c(=O)c21 [8l]	significant loss	–	significant loss	–
CCc1ccc(-c2ccc3c(c2)c2nc(SCC(=O)NC4CCCCC4)n(-c4ccccc4)c(=O)c2n3C)cc1 [8d]	–	maintaining TLR4 activity	–	toxicity in cell-based MTT assay (in words) [1]: relatively high toxicity
